These results are taken from US20030092735A1, “Use of substance P antagonists for the treatment of chronic fatigue syndrome and/or fibromyalgia and use of NK-1 receptor antagonists for the treatment of chronic fatigue syndrome” (priority 1998, published 2003).

The subject of test [1] is Patients with chronic fatigue syndrome. Put plainly: CFS Clinical Study (randomized, double-blind, placebo-controlled). To be noted: doses of 10 to 20 mg/day, myalgias, cognitive impairment, baseline vs end of treatment. The class given is in vivo, human. From the text:
Patients with chronic fatigue syndrome according to the CDC (Centre for Disease Control) definition (G. P. Holmes et al.: A working case definition. Ann. intern. Med; 108 (1988), 387-389) are included in the trial. Other recognised definitions may be used to identify patients with chronic fatigue syndrome as appropriate. Both male and female patients are eligible, provided they are over 18 years of age and under 65 years of age. The main exclusion criteria comprise pregnant and lactating women; in addition patients suffering from other diseases that cause significant fatigue as well as patients who suffer from active infections are excluded. […]
The study is in the form of a prospective, randomized, double-blind, placebo-controlled, parallel-group study using different doses of a Preferred A Compound of the Invention, (e.g. (2R,4S)-N-[1-(3,5-bistrifluoromethylbenzoyl)-2-(4-chlorobenzyl)-piperidin-4-yl-quinolin-4-carboxamide). […] Adverse events are assessed during the active treatment period. […]
Other parameters which are evaluated include cognitive impairment (to be measured by visual analog scale [VAS]) and the assessment of myalgias. […] The assessment of each body region is done by the patients themselves; the total score is calculated as the sum of the regional scores. […]

Test [2] relates to patients who meet the ACR criteria for primary fibromyalgia. Put plainly: Fibromyalgia Clinical Study (randomized, double-blind, placebo-controlled). Format: in vivo, human. To be noted: doses of 10 to 20 mg/day; response = 35% or higher reduction in individual pain score, baseline versus end of treatment. From the text:
The study is in the form of a prospective, randomized, double-blind, placebo-controlled, parallel-group study using different doses of Compound of the Invention. Male and female patients (over 18 years) who meet the ACR (American College of Rheumatology) cirteria for primary fibromyalgia are included in this trial. The main exclusion criteria include pregnant and lactating woman, patients suffering from other inflammatory rheumatological diseases (such as rheumatoid arthritis or collagenoses), severe neuropathies, clinically manifest endocrinopathies, bone diseases, severe cardial, renal or hepatic impairment and acute or chronic infections.
Patients are randomly assigned to one of five study arms, placebo, 1 mg, 10 mg, 20 mg and 40 mg of test compound. The duration of treatment is two weeks. Before, on day 7 and at the end of the treatment phase, a physical examination, pain assessment and blood testing are performed. […] Adverse events are assessed during the active treatment period.
To evaluate pain, the pain score, a visual analogue scale and clinical examination of tenderpoints is used. […] The assessment of each body region is done by the patients themselves; the total score is calculated as the sum of the regional scores. […]

For test [3] the test system is unchanged. Particulars: Amitryptilin regarded as an effective treatment in fibromyalgia; comparator value; cited from earlier work.

Take `O=C(N[C@H]1CCN(C(=O)c2cc(C(F)(F)F)cc(C(F)(F)F)c2)[C@H](Cc2ccc(Cl)cc2)C1)c1ccnc2ccccc12` [(2R,4S)-N-[1-(3,5-bistrifluoromethylbenzoyl)-2-(4-chlorobenzyl)-piperidin-4-yl-quinolin-4-carboxamide]: the “reduction in the score for one or more symptoms of CFS” value in test [1] was not below 20%. Besides, the “response rates for fibromyalgia treatment” value in test [2] was “at least equivalent to or comparable with those achieved with Amitryptilin”.
As to `CN(C)CCC=C1c2ccccc2CCc2ccccc21` [Amitryptilin], the “response rates in fibromyalgia (of patients)” value in test [3] is 20 to 30%.
